In brackets after ≈: the same amount, converted by molar mass.
Assays:
Format in all cases: functional
[1] = test system: Staphylococcus; assay: Antimicrobial activity against methicillin-susceptible coagulase-negative Staphylococcus after 20 to 24 hrs by broth microdilution method
[2] = test system: Staphylococcus aureus; assay: Antimicrobial activity against methicillin-resistant Staphylococcus aureus after 20 to 24 hrs by broth microdilution method
[3] = test system: Staphylococcus aureus; assay: Antimicrobial activity against methicillin-susceptible Staphylococcus aureus after 20 to 24 hrs by broth microdilution method
[4] = test system: Staphylococcus; assay: Antimicrobial activity against methicillin-resistant coagulase-negative Staphylococcus after 20 to 24 hrs by broth microdilution method
[5] = test system: Streptococcus sp. 'group A'; assay: Antimicrobial activity against Streptococcus group A after 20 to 24 hrs by broth microdilution method
[6] = test system: Streptococcus pneumoniae; assay: Antibacterial activity against penicillin-susceptible Streptococcus pneumoniae after 20 to 24 hrs by broth microdilution method
[7] = test system: Streptococcus pneumoniae; assay: Antibacterial activity against penicillin-resistant Streptococcus pneumoniae after 20 to 24 hrs by broth microdilution method
[8] = test system: Streptococcus viridans; assay: Antimicrobial activity against Streptococcus viridans after 20 to 24 hrs by broth microdilution method
[9] = test system: Streptococcus sp. 'group B'; assay: Antimicrobial activity against Streptococcus group B after 20 to 24 hrs by broth microdilution method
[10] = test system: Streptococcus pneumoniae; assay: Antibacterial activity against penicillin-intermediate Streptococcus pneumoniae after 20 to 24 hrs by broth microdilution method
[11] = test system: Enterococcus faecalis; assay: Antimicrobial activity against vancomycin-resistant Enterococcus faecalis after 20 to 24 hrs by broth microdilution method
[12] = test system: Enterococcus faecalis; assay: Antimicrobial activity against vancomycin-susceptible Enterococcus faecalis after 20 to 24 hrs by broth microdilution method
[13] = test system: Enterococcus faecium; assay: Antibacterial activity against vancomycin-resistant Enterococcus faecium after 20 to 24 hrs by broth microdilution method
[14] = test system: Enterococcus faecium; assay: Antibacterial activity against vancomycin-susceptible Enterococcus faecium after 20 to 24 hrs by broth microdilution method

Structure (SMILES) | MIC50 [1] [µg/mL] | MIC90 [1] [µg/mL] | MIC50 [2] [µg/mL] | MIC90 [2] [µg/mL] | MIC50 [3] [µg/mL] | MIC90 [3] [µg/mL] | MIC50 [4] [µg/mL] | MIC90 [4] [µg/mL] | MIC50 [5] [µg/mL] | MIC90 [5] [µg/mL] | MIC50 [6] [µg/mL] | MIC90 [6] [µg/mL] | MIC50 [7] [µg/mL] | MIC90 [7] [µg/mL] | MIC50 [8] [µg/mL] | MIC90 [8] [µg/mL] | MIC50 [9] [µg/mL] | MIC90 [9] [µg/mL] | MIC50 [10] [µg/mL] | MIC90 [10] [µg/mL] | other results
CNC1C(O)C(OC2C(N)CC(N)C(OC3OC(CN)CCC3N)C2O)OCC1(C)O (stereo not given) [GENTAMICIN C1A] | ≤ 0.06 | ≤ 0.06 | 0.5 (≈ 1.11 µM) | > 16 | 0.25 (≈ 0.556 µM) | 1 (≈ 2.22 µM) | 8 (≈ 17.8 µM) | > 16 | – | – | – | – | – | – | – | – | – | – | – | – | MIC [1]: ≤ 0.06 µg/mL
C[C@H]1COc2c(N3CCN(C)CC3)c(F)cc3c(=O)c(C(=O)O)cn1c23.C[C@H]1COc2c(N3CCN(C)CC3)c(F)cc3c(=O)c(C(=O)O)cn1c23.O [LEVOFLOXACIN] | – | – | – | – | – | – | – | – | 0.5 | 0.5 | 0.5 | 1 | 0.5 | 4 | 0.5 | 1 | 0.5 | 1 | 0.5 | 1 | –
CC(=O)NC[C@H]1CN(c2ccc(N3CCOCC3)c(F)c2)C(=O)O1 [LINEZOLID] | 1 (≈ 2.96 µM) | 2 (≈ 5.93 µM) | 2 (≈ 5.93 µM) | 2 (≈ 5.93 µM) | 2 (≈ 5.93 µM) | 2 (≈ 5.93 µM) | 2 (≈ 5.93 µM) | 2 (≈ 5.93 µM) | – | – | 1 (≈ 2.96 µM) | 1 (≈ 2.96 µM) | 1 (≈ 2.96 µM) | 1 (≈ 2.96 µM) | 1 (≈ 2.96 µM) | 1 (≈ 2.96 µM) | 1 (≈ 2.96 µM) | 1 (≈ 2.96 µM) | 1 (≈ 2.96 µM) | 1 (≈ 2.96 µM) | MIC [1]: 1 µg/mL (≈ 2.96 µM); MIC50 [11]: 2 µg/mL (≈ 5.93 µM); MIC90 [11]: 2 µg/mL (≈ 5.93 µM); MIC50 [12]: 2 µg/mL (≈ 5.93 µM); MIC90 [12]: 2 µg/mL (≈ 5.93 µM); MIC50 [13]: 2 µg/mL (≈ 5.93 µM); MIC90 [13]: 2 µg/mL (≈ 5.93 µM); MIC50 [14]: 2 µg/mL (≈ 5.93 µM); MIC90 [14]: 2 µg/mL (≈ 5.93 µM)
Cc1onc(-c2ccccc2)c1C(=O)N[C@@H]1C(=O)N2[C@@H]1SC(C)(C)[C@@H]2C(=O)O [OXACILLIN] | 0.12 (≈ 0.299 µM) | 0.12 (≈ 0.299 µM) | > 4 | > 4 | 0.25 (≈ 0.623 µM) | 0.5 (≈ 1.25 µM) | > 4 | > 4 | – | – | – | – | – | – | – | – | – | – | – | – | –
CC[C@H]1OC(=O)[C@H](C)C(=O)[C@H](C)[C@@H](O[C@@H]2O[C@H](C)C[C@H](N(C)C)[C@H]2O)[C@](C)(OC)C[C@@H](C)C(=O)[C@H](C)[C@H]2N(CCCCn3cnc(-c4cccnc4)c3)C(=O)O[C@]12C [TELITHROMYCIN] | 0.06 (≈ 0.0739 µM) | 0.5 (≈ 0.616 µM) | 0.12 (≈ 0.148 µM) | > 8 | 0.12 (≈ 0.148 µM) | 0.12 (≈ 0.148 µM) | 0.12 (≈ 0.148 µM) | > 8 | 0.015 (≈ 0.0185 µM) | 0.015 (≈ 0.0185 µM) | 0.008 (≈ 0.00985 µM) | 0.008 (≈ 0.00985 µM) | 0.015 (≈ 0.0185 µM) | 0.03 (≈ 0.0369 µM) | 0.008 (≈ 0.00985 µM) | 0.12 (≈ 0.148 µM) | 0.015 (≈ 0.0185 µM) | 0.015 (≈ 0.0185 µM) | 0.008 (≈ 0.00985 µM) | 0.25 (≈ 0.308 µM) | –
CN(C)[C@@H]1C(O)=C(C(N)=O)C(=O)[C@@]2(O)C(O)=C3C(=O)c4c(O)cccc4[C@@](C)(O)[C@H]3C[C@@H]12 [TETRACYCLINE] | – | – | – | – | – | – | – | – | 0.12 (≈ 0.27 µM) | > 8 | 0.12 (≈ 0.27 µM) | 0.25 (≈ 0.563 µM) | 0.25 (≈ 0.563 µM) | – | 0.5 (≈ 1.13 µM) | > 8 | > 8 | > 8 | 0.25 (≈ 0.563 µM) | > 8 | MIC [5]: 0.12 µg/mL (≈ 0.27 µM)
CN[C@H](CC(C)C)C(=O)N[C@H]1C(=O)N[C@@H](CC(N)=O)C(=O)N[C@H]2C(=O)N[C@H]3C(=O)N[C@H](C(=O)N[C@H](C(=O)O)c4cc(O)cc(O)c4-c4cc3ccc4O)[C@H](O)c3ccc(c(Cl)c3)Oc3cc2cc(c3O[C@@H]2O[C@H](CO)[C@@H](O)[C@H](O)[C@H]2O[C@H]2C[C@](C)(N)[C@H](O)[C@H](C)O2)Oc2ccc(cc2Cl)[C@H]1O [VANCOMYCIN] | 1 (≈ 0.69 µM) | 2 (≈ 1.38 µM) | 1 (≈ 0.69 µM) | 1 (≈ 0.69 µM) | 0.5 (≈ 0.345 µM) | 1 (≈ 0.69 µM) | 1 (≈ 0.69 µM) | 2 (≈ 1.38 µM) | 0.25 (≈ 0.173 µM) | 0.5 (≈ 0.345 µM) | 0.25 (≈ 0.173 µM) | 0.5 (≈ 0.345 µM) | 0.25 (≈ 0.173 µM) | 0.5 (≈ 0.345 µM) | 0.5 (≈ 0.345 µM) | 1 (≈ 0.69 µM) | 0.5 (≈ 0.345 µM) | 0.5 (≈ 0.345 µM) | 0.25 (≈ 0.173 µM) | 0.5 (≈ 0.345 µM) | MIC [5]: 0.25 µg/mL (≈ 0.173 µM); MIC50 [11]: 512 µg/mL (≈ 353 µM); MIC90 [11]: > 512 µg/mL; MIC50 [12]: 2 µg/mL (≈ 1.38 µM); MIC90 [12]: 2 µg/mL (≈ 1.38 µM); MIC [6]: 0.25 µg/mL (≈ 0.173 µM); MIC50 [13]: 512 µg/mL (≈ 353 µM); MIC90 [13]: 512 µg/mL (≈ 353 µM); MIC [7]: 0.25 µg/mL (≈ 0.173 µM); MIC50 [14]: 1 µg/mL (≈ 0.69 µM); MIC90 [14]: 1 µg/mL (≈ 0.69 µM); MIC [10]: 0.25 µg/mL (≈ 0.173 µM)
